Assay results from PMC6805442, “Discovery of low-molecular weight anti-PD-L1 peptides for cancer immunotherapy” (Journal for Immunotherapy of Cancer, 2019).
Like-named read-outs stand apart in the source and are kept apart here. No end group written: not given here.

What was measured:
[1] = molecular target: T1, recombinant human PD-L1 ECD protein (Homo sapiens, UniProt Q9NZQ7); assay: SPR binding to human PD-L1; conditions: for kon: read-out: Ka
T1 construct: the recombinant human PD-L1 ECD protein were evaluated using SPR; purchased G&P Biosciences FCL0784B
T1 sequence (Q9NZQ7 19-238 limits assumed): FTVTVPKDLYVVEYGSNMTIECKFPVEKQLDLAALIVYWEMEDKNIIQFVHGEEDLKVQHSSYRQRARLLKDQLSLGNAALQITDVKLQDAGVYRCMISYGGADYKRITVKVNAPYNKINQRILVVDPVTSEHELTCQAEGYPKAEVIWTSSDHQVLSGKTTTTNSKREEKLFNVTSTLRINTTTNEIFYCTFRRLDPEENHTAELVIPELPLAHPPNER
Description: Binding affinities of the PD-L1 specific peptides for human PD-L1 protein were determined by SPR (BI4500, Biosensing Instrument). PD-L1 protein was diluted to 10 μg/mL with sodium acetate buffer (pH 5.0, GE Healthcare, PA) and covalently coated onto a CM5 sensor chip (CM Dextran Sensor Chip, Biosensing Instrument) using the standard Amine Coupling Kit (GE Healthcare, PA). Approximately 6500 RU of PD-L1 protein were immobilized onto the chip. A second channel was used as a reference. HBS-EP+ buffer (GE Healthcare) was employed at a flow rate of 60 μL/min. A series of concentrations of each peptide (15, 30, 60, 125, 250, 500, 1000, 5000 and 10,000 nM) were prepared in HBS-EP+ running buffer to obtain the equilibrium dissociation constant (KD) values of the peptides. The CM5 sensor chip was regenerated with 10 mM NaOH for 20 s. The results were analyzed using the software of Bi data analysis software.
Binding affinities of the discovered peptides against the recombinant human PD-L1 ECD protein were evaluated using SPR. The PD-L1 protein was immobilized on a CM5 golden chip by the direct amine coupling method. […] Even though the binding affinity of peptides are generally lower than that of antibodies, the very high affinity of antibodies may result in on-target, off-tumor toxicity in healthy tissues that express low levels of PD-L1. In a recent study, scientists constructed several chimeric antigen receptor (CAR) T cells with different affinities to ICAM-1. […] CAR-T cells with nanomolar affinity lyse healthy cells that express a low level of ICAM-1. By contrast, CAR-T cells with micromolar affinity only attack tumor cells with high levels of ICAM-1 but not healthy cells with low levels of ICAM-1, leading to less toxicity.

[2] = molecular target: T2, PD-1/PD-L1 interaction on mouse cancer cell line 4 T1 (Mus musculus, UniProt Q9EP73); assay: Blockade of the PD-1/PD-L1 interaction on 4T1 cells; type: cell-based; conditions: for Block Efficiency: blocking profile (Fig. 2h, j)
T2 construct: endogenous in cells; host or cells: 4T1
T2 sequence (Q9EP73 19-290): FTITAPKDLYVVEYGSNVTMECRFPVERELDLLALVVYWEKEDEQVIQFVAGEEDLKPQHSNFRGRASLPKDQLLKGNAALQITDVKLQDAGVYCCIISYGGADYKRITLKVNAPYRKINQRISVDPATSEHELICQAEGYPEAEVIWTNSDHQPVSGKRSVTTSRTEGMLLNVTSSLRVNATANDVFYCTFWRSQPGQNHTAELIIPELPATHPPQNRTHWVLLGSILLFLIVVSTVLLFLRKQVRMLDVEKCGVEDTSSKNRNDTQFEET

[3] = molecular target: human PD-L1/CD80 interaction (Homo sapiens, UniProt Q9NZQ7); assay: Blockade of the CD80/PD-L1 interaction; type: biochemical; conditions: for blocking efficiency, CD80/PD-L1: 10 μM
Sequence of human PD-L1/CD80 interaction (Q9NZQ7 19-238 limits assumed): as the sequence (Q9NZQ7 19-238 limits assumed) above
Text: The CD80/PD-L1 interaction specifically restrains T cell activation, and blockade of the interaction could enhance the anti-tumor activity of the T cells. […] We, therefore, investigated whether the anti-PD-L1 peptides block the CD80/PD-L1 interaction.
Supplementary file 40425_2019_705_MOESM1_ESM.png: Additional file 1: Figure S1. Blockade of the PD-L1/CD80 interaction by anti-PD-L1 peptides and antibody. […] IC50 and blocking efficiency of CLP002 (b) and CLP003 (c) against the human PD-L1/CD80 interaction. Results are represented as the mean ± SD (n = 3).

[4] = molecular target: T3, mouse PD-1/PD-L1 interaction (mPD-L1 protein) (Mus musculus, UniProt Q9EP73); assay: Blockade of the mouse PD-1/PD-L1 interaction, mouse PD-L1 protein; type: biochemical; conditions: for Block Efficiency: mPD-L1 protein, blocking profile (Fig. 2h, i)
T3 construct: purchased G&P Biosciences FCL3502B (PD-L1)
T3 sequence (Q9EP73 19-239 limits assumed): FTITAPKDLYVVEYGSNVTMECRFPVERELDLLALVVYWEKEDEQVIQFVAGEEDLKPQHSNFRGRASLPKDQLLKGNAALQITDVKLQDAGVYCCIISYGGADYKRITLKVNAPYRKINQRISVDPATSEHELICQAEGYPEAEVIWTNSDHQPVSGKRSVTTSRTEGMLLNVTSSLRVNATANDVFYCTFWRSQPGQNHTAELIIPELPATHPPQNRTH
Description: (§1) Ninety-six-well plates were coated with 100 ng of PD-L1 protein (G&P Biosciences, human PD-L1 ECD, cat# FCL0784B. mouse PD-L1, cat# FCL3502B) and later blocked with 2% BSA for 2 h at room temperature. Various concentrations of peptides were loaded into the wells and incubated for 1 h at room temperature. […] Streptavidin-HRP (R&D systems) and chromogenic substrate were added into the wells. OD450 was then recorded and referenced to OD540.
By contrast, the blocking efficiency of the anti-mouse PD-L1 antibody was 92%.

[5] = molecular target: T4, human PD-1/PD-L1 interaction (hPD-L1 protein) (Homo sapiens, UniProt Q9NZQ7); assay: Blockade of the human PD-1/PD-L1 interaction, plate coated with human PD-L1 protein; type: biochemical; conditions: for Block Efficiency: hPD-L1 protein, blocking profile (Fig. 2d, e)
T4 construct: G&P Biosciences, human PD-L1 ECD, cat# FCL0784B; purchased G&P Biosciences FCL0784B (PD-L1)
T4 sequence (Q9NZQ7 19-238 limits assumed): as the sequence (Q9NZQ7 19-238 limits assumed) above
Description: as §1
(§2) We next examined the blocking efficiency of the anti-PD-L1 peptides at 10 μM (Fig. 2c). […] We also determined IC50 of each peptide using recombinant human PD-L1 protein and DU-145 cancer cells.

[6] = molecular target: T5, PD-1/PD-L1 interaction on DU-145 cells (Homo sapiens, UniProt Q9NZQ7); assay: Blockade of the PD-1/PD-L1 interaction, plate coated with DU-145 cells; type: cell-based; conditions: for Block Efficiency: DU145 cancer cells, blocking profile (Fig. 2d, f)
T5 construct: when the plate was coated with DU-145 cells; endogenous in cells; host or cells: DU-145
T5 sequence (Q9NZQ7 19-290): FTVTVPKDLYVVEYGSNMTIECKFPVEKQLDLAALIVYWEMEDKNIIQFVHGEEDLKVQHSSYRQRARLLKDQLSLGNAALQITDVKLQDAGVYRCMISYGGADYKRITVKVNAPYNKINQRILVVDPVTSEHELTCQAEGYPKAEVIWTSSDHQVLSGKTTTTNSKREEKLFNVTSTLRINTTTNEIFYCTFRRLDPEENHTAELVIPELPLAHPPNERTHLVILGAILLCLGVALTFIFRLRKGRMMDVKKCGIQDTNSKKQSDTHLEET
Description: as §1, §2

Row | Sequence | kon [1] [M⁻¹ s⁻¹] | IC50 ([2]; 4T1 cancer cells) [µM] | Block Efficiency ([2]; 4T1 cancer cells) [%] | blocking efficiency, CD80/PD-L1 [3] | Block Efficiency [4] [%] | Block Efficiency [5] [%] | IC50 ([6]; DU145 cancer cells coated on the plate) [µM] | Block Efficiency [6] [%] | Kd ([1]; SPR, human PD-L1 immobilized on CM5 chip (~6500 RU), HBS-EP+, 60 μL/min, peptide 15-10,000 nM, mean ± SD (n = 3)) [µM] | IC50 [2] [µM] | IC50 [3] [µM] | IC50 [4] [µM] | blocking efficiency ([4]; 10 μM, mouse PD-L1 protein (Fig. 2g)) [%] | IC50 [5] [µM] | IC50 [6] [µM]
1 | DYHDPSLPTLRK [CLP004] | 5140 ± 390 | 0.73 | 34 | ~27% | 48 | 52 | 0.2 | 60 |  |  |  |  |  |  | 
2 | HYPFRPHANQAS [CLP001] | 5190 ± 212 | 0.91 | 35 | approximately 17% | 34 | 0 |  | 0 |  |  |  |  |  |  | 
3 | WHFSYNWRWLPP [CLP003] | 22600 |  |  |  |  |  |  |  |  |  |  |  |  |  | 
4 | WHRSYYTWNLNT [CLP002] | 4520 ± 666 |  | 61 | ~48% | 68 | 85 |  | 80 | 0.366 | 2.44 | 2.45 | 1.91 | 71 | 2.17 | 1.43
